# Assay results published in US20130216630A1, “BIOMATERIALS FOR USE IN METHODS OF BONE REPLACEMENT THERAPY” (UNIVERSITY OF WITWATERSRAND, JOHANNESBURG, priority 2010, published 2013).
# “Also recorded” adds a separate entry of the source.
# Key:
# [1] = tested on: osteogenic protein-1 (OP-1) gene expression; assay: qTR-PCR analyses of harvested biomaterial constructs; format: in vivo; conditions: harvested constructs pre-treated with 0.24 mg zoledronate; Papio ursinus rectus abdominis
# Description: It is important to note that in specimens with bone formation by induction there is always expression of the OP-1 gene, i.e. there is a direct correlation between the induction of bone and the expression of the OP-1 gene.
# [2] = tested on: rectus abdominis muscle of Papio ursinus; assay: Heterotopic implantation of macroporous 7% HA/CC constructs in rectus abdominis muscle, histological evaluation of bone induction; format: in vivo; conditions: coral-derived 7% HA/CC macroporous constructs pre-loaded with 0.24 mg zoledronate; intramuscular (rectus abdominis) implantation in adult Papio ursinus; harvested 90 days after implantation
# Experimental: Topographical modification of the implanted constructs may be of the utmost importance for the differentiation of myoblastic/myoendothelial and/or perivascular/endothelial stem cells into osteoblastic-like cells. In order to study the effect of the osteoclastic activity on cell differentiation and the induction of bone formation, samples of solid porous construct compositions, typically macroporous hydroxyapatites were pre-loaded with 0.24 mg of the osteoclastic inhibitor biphosphonate zoledronate (Zometa®). Samples with and without zoledronate were then implanted in the rectus abdominis muscle of Papio ursinus.
# A biomaterial to act, in use, as a platform for bone growth induction and/or bone growth was prepared. Said solid porous composition in the form of macroporous hydroxyapatite replicas of the calcium carbonate exoskeletal microstructure of the coral genus Goniopora was prepared by hydrothermal chemical exchange with phosphate [(5) Ripamonti, U. J Bone Joint Surg Am 1991; 73:692-703; (6) Ripamonti U, Richter P W, Nilen R W N, Renton L., J Cell Mol Med 2008; 12:1029-48., (7) Shors EC, Orthop Clin North Am 1999:30:599-613; (8) Ripamonti U, van den Heever B, van Wyk J., Matrix 1993;13:491-502; (9) Ripamonti, R. M. Klar, L. F. Renton, C Ferretti., Biomaterials, 31, 6400-6410 (2010). The entirety of which are incorporated by reference herein]. […]
structure (smiles),measurement,setting,value
O=P(O)(O)C(O)(Cn1ccnc1)P(=O)(O)O [zoledronate],osteogenic protein-1 (OP-1) gene expression,[1],dramatic reduction
same,induction of bone formation / differentiation of bone within macroporous spaces (histology),[2],"lack of bone induction and/or bone growth; also recorded: either did not induce the differentiation of bone at all, or the induction was considerably inhibited; also recorded: In two specimens, the spontaneous induction of bone formation was altogether absent; also recorded: minor amounts of bone had formed by induction at the periphery; also recorded: very limited bone formation"
